The values that follow come from ChEMBL document CHEMBL1201862, “PubChem BioAssay data set” (2004).

Among the test systems are 786-0; BT-549; CAKI-1; EKVX; HCT-116; HOP-92; MDA-MB-435; NCI-H23; NCI-H460; OVCAR-4; PC-3; SK-MEL-5; SK-OV-3; SNB-75; SW-620; T47D; TK-10; UACC-62; RPMI-8226.
Holding throughout (assay): growth of human tumour cells (NCI), 48 h

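Briefly, cells in 96-well plates were exposed to five compound concentrations for 48 h, and endpoints were estimated by linear interpolation. Here, GI50 denotes the concentration required for 50% inhibition of growth.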 Activity calls are given as the source filed them. Rule as the data show it: active = GI50 up to about 1.1 µM and inactive = higher.

As for `Cc1cc2c(cc1Cl)Sc1nnc(C)n1S2(=O)=O`, the GI50 in the assay with 786-0 is 16.1 µM (inactive); with BT-549 it was 14.1 µM (inactive); in the assay with CAKI-1, 15.6 µM (inactive); with EKVX it was 16 µM (inactive); in the assay with HCT-116, 16.1 µM (inactive); in the assay on HOP-92 it was 2.84 µM (inactive). The GI50 in the assay with MDA-MB-435 is 13 µM (inactive); in the assay on NCI-H23 it was 12.9 µM (inactive); with NCI-H460, 23.7 µM (inactive); in the assay on OVCAR-4 it was 12.5 µM (inactive); in the assay on PC-3, 15 µM (inactive); with SK-MEL-5, 13.6 µM (inactive). For the same compound, the GI50 with SK-OV-3 is 26.6 µM (inactive); in the assay with SNB-75, 13.3 µM (inactive); with SW-620, 15.4 µM (inactive); with T47D, 8.18 µM (inactive); in the assay with TK-10, 15.6 µM (inactive); in the assay with UACC-62, 15 µM (inactive).

`CC/C(C)=C1\OC(=O)C(C)C(O)C(Cc2cccnc2)NC(=O)C(NC(=O)c2ncccc2O)C(C)OC1=O` (configuration not stated): the GI50 is > 100 µM (inactive) with 786-0; > 100 µM (inactive) in the assay on BT-549; > 100 µM (inactive) in the assay with CAKI-1; 31.3 µM (inactive) in the assay on EKVX; 82.2 µM (inactive) with HCT-116; > 100 µM (inactive) with MDA-MB-435. Moreover, the GI50 in the assay on NCI-H23 was > 100 µM (inactive); in the assay with NCI-H460 it was 63.1 µM (inactive); in the assay on OVCAR-4, > 100 µM (inactive); with PC-3, 50 µM (inactive); in the assay with RPMI-8226, 90.8 µM (inactive); in the assay with SK-MEL-5, > 100 µM (inactive). Moreover, the GI50 in the assay on SK-OV-3 is 71.9 µM (inactive); in the assay on SNB-75 it was 51.6 µM (inactive); in the assay with SW-620, > 100 µM (inactive); in the assay on T47D, > 100 µM (inactive); with TK-10, > 100 µM (inactive); in the assay with UACC-62 it was > 100 µM (inactive).

`c1ccc2c(c1)ccc1nc(-c3ccc4c(c3)OCO4)c3c(c12)CCC3`: the GI50 in the assay on 786-0 was > 100 µM (inactive); in the assay with BT-549, > 100 µM (inactive); in the assay on CAKI-1, > 100 µM (inactive); in the assay with EKVX it was 89.3 µM (inactive); in the assay with HCT-116, 88.9 µM (inactive); with MDA-MB-435 it was 59.6 µM (inactive). In addition, the GI50 in the assay with NCI-H23 was 60.3 µM (inactive); with NCI-H460 it was 45.3 µM (inactive); in the assay with OVCAR-4 it was 57.1 µM (inactive); in the assay on PC-3 it was 56.4 µM (inactive); in the assay on RPMI-8226, 37.1 µM (inactive); in the assay on SK-OV-3, > 100 µM (inactive). For the same compound, the GI50 with SNB-75 is > 100 µM (inactive); in the assay on SW-620, > 100 µM (inactive); in the assay with T47D, 52.4 µM (inactive); in the assay on UACC-62 it was > 100 µM (inactive).

Take `Cc1ccc2c(c1)NC(c1ccc(C(=O)O)cc1)c1cccn1-2` (configuration not stated): the GI50 was 19.3 µM (inactive) in the assay on 786-0; 61.2 µM (inactive) with BT-549; 15.6 µM (inactive) in the assay on CAKI-1; 22.1 µM (inactive) with EKVX; 47.9 µM (inactive) with HCT-116; 5.16 µM (inactive) in the assay on MDA-MB-435. In addition, the GI50 with NCI-H23 is > 100 µM (inactive); in the assay with NCI-H460, 66.5 µM (inactive); in the assay on OVCAR-4, 17.2 µM (inactive); with PC-3 it was 32.7 µM (inactive); in the assay on RPMI-8226, > 100 µM (inactive); in the assay with SK-MEL-5 it was > 100 µM (inactive). Moreover, the GI50 in the assay on SK-OV-3 was 22.4 µM (inactive); with SNB-75 it was 18.7 µM (inactive); in the assay on SW-620 it was > 100 µM (inactive); in the assay with T47D, 13.7 µM (inactive); in the assay with TK-10, 30.8 µM (inactive); with UACC-62, 42.8 µM (inactive).

`COc1ccc(N[C@H](C[S+]([O-])c2ccc(C)cc2)c2ccc(F)cc2)cc1` (some centres not stated): the GI50 with 786-0 was 65.3 µM (inactive); with BT-549, > 100 µM (inactive); in the assay with CAKI-1 it was > 100 µM (inactive); in the assay on EKVX it was > 100 µM (inactive); in the assay on HCT-116, > 100 µM (inactive); in the assay with MDA-MB-435, > 100 µM (inactive). For the same compound, the GI50 in the assay with NCI-H23 is 13.2 µM (inactive); with NCI-H460, 91.2 µM (inactive); with OVCAR-4 it was 94.2 µM (inactive); with PC-3, 82.4 µM (inactive); in the assay on RPMI-8226, > 100 µM (inactive); in the assay with SK-MEL-5, 12.9 µM (inactive). In addition, the GI50 in the assay on SK-OV-3 is 72.3 µM (inactive); in the assay on SNB-75 it was 27.2 µM (inactive); with SW-620, > 100 µM (inactive); in the assay with T47D, 10.3 µM (inactive); in the assay on TK-10, > 100 µM (inactive); in the assay with UACC-62 it was 34.4 µM (inactive).

Take `c1ccc(-c2nc3ccccc3n3nnnc23)cc1`: the GI50 was 57.1 µM (inactive) in the assay on 786-0; > 100 µM (inactive) with BT-549; 11.5 µM (inactive) in the assay with EKVX; > 100 µM (inactive) with HCT-116; > 100 µM (inactive) with HOP-92; > 100 µM (inactive) in the assay on MDA-MB-435. The GI50 in the assay with NCI-H23, in the assay on NCI-H460, in the assay with OVCAR-4, with PC-3, in the assay with RPMI-8226 and in the assay on SK-MEL-5 was > 100 µM (inactive) in each case. Moreover, the GI50 was > 100 µM (inactive) with SK-OV-3; > 100 µM (inactive) with SW-620; 20.2 µM (inactive) in the assay on T47D; > 100 µM (inactive) in the assay on TK-10; > 100 µM (inactive) in the assay on UACC-62.

Consider `Nc1nc(Cl)c(N)c(NCC2(CO)CC(CCCc3ccccc3)C2)n1` (configuration not stated), for which the GI50 in the assay on 786-0 is 22.7 µM (inactive); in the assay on BT-549, 15.5 µM (inactive); in the assay on CAKI-1, 34.8 µM (inactive); in the assay on EKVX, 0.223 µM (active); in the assay with HCT-116, 0.495 µM (active); in the assay with HOP-92 it was 51.1 µM (inactive). Besides, the GI50 in the assay on MDA-MB-435 is 11.6 µM (inactive); with NCI-H460, 33.7 µM (inactive); with OVCAR-4 it was > 33.7 µM (inactive); in the assay with PC-3, 17.9 µM (inactive); in the assay on SK-OV-3 it was > 100 µM (inactive); in the assay on SNB-75, 20.4 µM (inactive). The GI50 was 40.1 µM (inactive) in the assay on SW-620, 5.27 µM (inactive) in the assay with T47D, 56.2 µM (inactive) in the assay with TK-10 and 24.1 µM (inactive) with UACC-62.

For the compound `C[C@]12c3c4cc(NC(=O)C(=O)NCc5ccc(-c6ccccn6)nc5)cc3Oc3cc(NC(=O)C(=O)NCc5ccc(-c6ccccn6)nc5)cc(c31)OC1C=C(NC(=O)C(=O)NCc3ccc(-c5ccccn5)nc3)C=C(O4)C12` (some centres not stated), the GI50 was 18.1 µM (inactive) with 786-0; > 100 µM (inactive) in the assay on BT-549; 21.2 µM (inactive) in the assay with CAKI-1; 11.5 µM (inactive) with EKVX; 29.2 µM (inactive) in the assay on HCT-116; 97.9 µM (inactive) in the assay with MDA-MB-435. Besides, the GI50 in the assay with NCI-H460 was 17.1 µM (inactive); with OVCAR-4 it was 3.47 µM (inactive); in the assay with PC-3, 61.5 µM (inactive); in the assay with RPMI-8226 it was 42.1 µM (inactive); in the assay on SK-MEL-5, 35.3 µM (inactive); in the assay on SK-OV-3, 17 µM (inactive). The GI50 was 16.4 µM (inactive) in the assay with SNB-75; > 100 µM (inactive) with SW-620; 26.7 µM (inactive) in the assay with T47D; > 100 µM (inactive) in the assay on TK-10; 24.5 µM (inactive) in the assay with UACC-62.

Turning to `[O-][s+]1c2c(Cc3ccccc3)c(Cc3ccccc3)c1CCc1cccc(c1)CC2`, the GI50 in the assay with 786-0 was 15.2 µM (inactive); with BT-549, 13.8 µM (inactive); in the assay with CAKI-1, 11.9 µM (inactive); in the assay on EKVX, 13.2 µM (inactive); with HCT-116 it was 8.99 µM (inactive); in the assay with HOP-92 it was 13.4 µM (inactive). For the same compound, the GI50 in the assay on MDA-MB-435 is 12.9 µM (inactive); in the assay on NCI-H23 it was 12.7 µM (inactive); in the assay on NCI-H460 it was 13.4 µM (inactive); in the assay with OVCAR-4 it was 5.02 µM (inactive); in the assay on PC-3 it was 13.3 µM (inactive); in the assay with SK-MEL-5, 14.9 µM (inactive). Further, the GI50 was 10.7 µM (inactive) in the assay with SK-OV-3; 13 µM (inactive) in the assay on SNB-75; 24.5 µM (inactive) in the assay on SW-620; 6.68 µM (inactive) in the assay with T47D; 19.1 µM (inactive) in the assay with TK-10; 10.9 µM (inactive) with UACC-62.

Turning to `Cc1ccc(S(=O)(=O)Oc2ccc(OS(=O)(=O)c3ccc(C)cc3)c3c2C(=O)c2ccccc2C3=O)cc1`, the GI50 was 50.7 µM (inactive) in the assay on 786-0; > 100 µM (inactive) in the assay on BT-549; > 100 µM (inactive) in the assay on CAKI-1; > 100 µM (inactive) in the assay with EKVX; > 100 µM (inactive) in the assay with HCT-116; > 100 µM (inactive) in the assay with HOP-92. Besides, the GI50 with MDA-MB-435, in the assay with NCI-H23, with NCI-H460, in the assay with OVCAR-4, with PC-3 and in the assay with SK-MEL-5 was > 100 µM (inactive) each time. The GI50 with SK-OV-3 was > 100 µM (inactive); in the assay on SNB-75 it was 16.8 µM (inactive); in the assay with SW-620, > 100 µM (inactive); in the assay with T47D, > 100 µM (inactive); with TK-10, > 100 µM (inactive); in the assay with UACC-62, > 100 µM (inactive).

On to `O=C(/C=C/c1ccsc1)c1cccs1`, for which the GI50 was 49.3 µM (inactive) in the assay on 786-0; 20.8 µM (inactive) with BT-549; 27.3 µM (inactive) in the assay with CAKI-1; 41.3 µM (inactive) with EKVX; 15.6 µM (inactive) in the assay on HCT-116; 29.4 µM (inactive) in the assay on HOP-92. In addition, the GI50 in the assay with MDA-MB-435 is > 10 µM (inactive); with NCI-H23, 22.5 µM (inactive); in the assay with NCI-H460, 41.7 µM (inactive); with OVCAR-4 it was 44.8 µM (inactive); in the assay on PC-3, 69.5 µM (inactive); in the assay on SK-MEL-5 it was 14.6 µM (inactive). The GI50 is 39.1 µM (inactive) in the assay on SK-OV-3; > 100 µM (inactive) in the assay with SNB-75; 17.3 µM (inactive) in the assay with SW-620; 20 µM (inactive) in the assay on T47D; 23.1 µM (inactive) in the assay with TK-10; 25.4 µM (inactive) in the assay with UACC-62.
